Article PMC4919643, “Intestinally-targeted TGR5 agonists equipped with quaternary ammonium have an improved hypoglycemic effect and reduced gallbladder filling effect” (Scientific Reports, 2016)
In brackets after ≈: the same amount, converted by molar mass. Values belong to the compound of their own block, whether it stands above or below them.

What was measured:
[1] = Solubility in water determined by LC-MS/MS; assay type: physicochemical
[2] = system: Caco-2 cells; assay: Caco-2 permeability determination; assay type: in vitro ADME
Procedure: (§1) Caco-2 permeability determination. Caco-2 permeability determination was carried out […]
(§2) Caco-2 cells were obtained from the ATCC (Cat#HTB-37) and maintained in Dulbecco’s modified Eagle’s Medium containing 10% fetal bovine serum, 1% glutamine, 1% nonessential amino acids, 100 μg/mL streptomycin, and 100 U/mL penicillin.
(§3) CO2 and 90% relative humidity environment. Caco-2 cells were passaged every 7 days at a ratio of 1:10. Cells were used between passages 30 and 40. After 21 days of culture, the integrity of the cell monolayer was verified by measuring the transepithelial electrical […]
(§4) Drug transport from the apical side to the basolateral side (A-B) and from the basolateral side to the apical side was measured simultaneously under the same condition.
(§5) Propranolol and atenolol were used as the […] control, respectively.
(§6) Digoxin was used as the positive control for Pgp-mediated drug efflux. In brief, the method was as follows. After washing the monolayer with HBSS three times, the compounds were diluted and added to the appropriate well (pH 6.8 for apical side and pH […]
(§7) 7.4 for basolateral side). […] Samples were […]
(§8) collected from the donor side at 5 and 95 min, and from the receiver side at 35 and 95 min post-incubation. The concentration of samples was measured by LC-MS/MS. The Papp was calculated from the following equation:
(§9) Papp = (VA/(SA×T))×([drug]acceptor/ [durg]initial donor )
(§10) Where VA is the volume of the acceptor well, SA is the surface area of the membrane, T is the total transport time, [drug]acceptor is the drug level at the acceptor side, and [drug]initial donor is the drug level at the donor side at T = 0. […]

[3] = system: ICR mice; assay: Oral glucose tolerance test (OGTT) in ICR mice; assay type: in vivo, mouse
Procedure: Blood glucose levels were measured berefore and after glucose loading. *p < 0.05, **p < 0.01 vs. control. Error bar indicateds SEM (standard error of the mean). […]
Oral glucose tolerance test (OGTT) and gallbladder filling assay in ICR mice. 100 […]
(§11) mice (n = 7-8) 90 min prior to the oral glucose load (4 g/kg). Blood glucose levels were measured via blood drops obtained by clipping the tail of the mice using an Accu-Chek Advantage II Glucose Monitor (Roche, Indianapolis, IN, USA) before compound dosing and 0, 15, 30, 60, and 120 min after the glucose load. The area under the concentration−time curve from 0 to 120 min (AUC0−120 min, Glu) of blood glucose after the glucose load was calculated by the trapezoidal rule. […]

[4] = target: T1, mouse TGR5 (Mus musculus, UniProt Q80SS6); assay: In vitro TGR5 reporter gene assay (mTGR5/CRE/HEK293)
T1 sequence (Q80SS6 1-329): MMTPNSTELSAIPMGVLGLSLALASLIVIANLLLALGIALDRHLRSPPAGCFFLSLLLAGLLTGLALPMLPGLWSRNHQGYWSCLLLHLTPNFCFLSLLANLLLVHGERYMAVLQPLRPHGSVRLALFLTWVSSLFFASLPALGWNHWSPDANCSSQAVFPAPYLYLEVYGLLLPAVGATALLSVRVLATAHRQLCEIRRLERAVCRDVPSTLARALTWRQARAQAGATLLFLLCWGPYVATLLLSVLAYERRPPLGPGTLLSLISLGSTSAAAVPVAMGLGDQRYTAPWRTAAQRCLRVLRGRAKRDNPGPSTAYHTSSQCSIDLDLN

[5] = target: T2, human TGR5 (Homo sapiens, UniProt Q8TDU6); assay: In vitro TGR5 reporter gene assay (hTGR5/CRE/HEK293)
T2 sequence (Q8TDU6 1-330): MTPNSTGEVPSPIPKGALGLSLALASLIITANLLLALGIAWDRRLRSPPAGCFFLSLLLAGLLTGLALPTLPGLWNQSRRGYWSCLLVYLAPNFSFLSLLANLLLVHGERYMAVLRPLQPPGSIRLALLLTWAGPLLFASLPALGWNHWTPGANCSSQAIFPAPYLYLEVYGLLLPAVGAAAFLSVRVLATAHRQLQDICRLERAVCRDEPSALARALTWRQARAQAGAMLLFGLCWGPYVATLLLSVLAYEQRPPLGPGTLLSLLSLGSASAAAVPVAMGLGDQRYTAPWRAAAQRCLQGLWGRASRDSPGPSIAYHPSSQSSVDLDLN

[6] = Solubility as noted in the SAR discussion; assay type: physicochemical; conditions: compounds containing Br
[7] = system: ICR mice; set-up: method as in PMID 25710631; conditions: normal mice (ICR mice); cited from earlier work
[8] = system: ob/ob mice; assay: Hypoglycemic effect of 3 in diabetic model ob/ob mice; assay type: in vivo, mouse
[9] = Caco-2 permeability determination; assay type: in vitro ADME; conditions: human
Procedure: as §1, §2, §3, §4, §5, §6, §7, §8, §9, §10

[10] = In vitro microsomal stability assay (human); assay type: in vitro ADME; conditions: human liver microsomes
Procedure: (§12) Acetonitrile (containing 0.1% formic acid; C (MeOH with 1% TFA). Flow rate: 0.6 […]
(§13) Data system: Masslynx 4.1 (Waters).
(§14) In vitro microsomal stability assay. The test compound was dissolved in DMSO and diluted to the desired concentration with DMSO and 0.1% aqueous BSA. Liver microsomes were incubated in a 96-well plate containing 0.1 M Tris buffer (pH 7.4), 0.33 mg/mL microsomal protein, 0.1 mM test compound, 5.0 mM MgCl2, 0.005% BSA, and 1.0 mM NADPH. Incubations were conducted at 37 °C. An aliquot was removed at each time point and the enzymatic reaction was stopped by protein precipitation in MeOH. The loss of the test compound was determined by LC-MS/MS. The intrinsic clearance (CLint, mL/min/g) was calculated from the following equation: […]
(§15) Where k (min-1) is the slope of the line of the natural log of the percentage parent remaining versus the time of incubation; P is the microsomal protein concentration

[11] = system: ICR mice; assay: Gallbladder filling assay in ICR mice; assay type: in vivo, mouse; conditions: once a day oral dose 50 mg/kg
Procedure: Figure 4 (A) Relative gallbladder area and (B) relative bile weight after once a day oral dose. After the OGTT experiment, mice were refed for 3 h, the gallbladder was removed and the area measured using a vernier caliper. The relative gallbladder area was calculated from the length multiplied by the width of the gallbladder. Bile weight was measured using analytical balances. *p < 0.05; **p < 0.01; ***p < 0.001. Error bar indicates SEM.
Caco-2 permeability determination. Caco-2 permeability determination was carried out according to (Eur. J. Med. Chem. 2014, 82, 1-15). […]
Drug transport from the apical side to the basolateral side (A-B) and from the basolateral side to the apical side was measured simultaneously under the same condition. […]
Digoxin was used as the positive control for Pgp-mediated drug efflux. […] The concentration of samples was measured by LC-MS/MS. The Papp was calculated from the following equation: […]
as §11

[12] = In vitro microsomal stability assay (mice); assay type: in vitro ADME; conditions: mice liver microsomes
Procedure: as §12, §13, §14, §15

[13] = Caco-2, apical to basolateral side
[14] = Caco-2, basolateral to apical side

SMILES: O=C(c1cnccc1Oc1cc(Cl)ccc1Cl)N1CCN(C2CC2)c2ccccc21 [Compound 2, reference compound]
solubility [1]: 0.441 µg/mL (≈ 1 µM)
Papp A to B [2, 13]: 6.75 10^−6 cm/s
Papp B to A [2, 14]: 5.58 10^−6 cm/s
AUC0–120 min of blood glucose, signed change vs control (OGTT, Fig. 3B) ([3]; 50 mg/kg p.o.): -16%
decrease of blood glucose AUC vs control (OGTT) ([3]; 50 mg/kg p.o. 1.5 h before glucose 4 g/kg): 16%

SMILES: O=C(CCc1cc(Cl)c(Oc2ccncc2C(=O)N2CCN(C3CC3)c3ccccc32)cc1Cl)NCCOCCOCCOCCOCCOCCOCCOCCOCCNC(=O)CCc1cc(Cl)c(Oc2ccncc2C(=O)N2CCN(C3CC3)c3ccccc32)cc1Cl [Compound 3]
hypoglycemic efficacy [7]: moderate
hypoglycemic effect [8]: no significant effect

Other lines, results leading:

EC50 [4]: 3 ± 0.69 nM
EC50 [5]: 0.58 ± 0.11 nM
melting point: 107 °C
solubility (in words) [6]: poor solubility
SMILES: O=C(c1sccc1Oc1cc(Cl)ccc1Br)N1CCN(C2CC2)c2ccccc21 [Compound 9c]

EC50 [5]: 76 ± 9.8 nM
melting point: 88 °C
SMILES: CN1CCN(C(=O)c2sccc2Oc2ccc(C(F)(F)F)cc2)c2ccccc21 [Compound 9h]

efflux ratio at 95 min ([9]; Caco-2): 0.8
Papp A→B at 95 min [9, 13]: 0.55 ×10⁻⁶ cm/s
Papp B→A at 95 min [9, 14]: 0.43 ×10⁻⁶ cm/s
EC50 [4]: 2.8 nM
EC50 [5]: 0.55 nM
liver microsomal clearance (CLint) [10]: 1631 mL/min/g
melting point: 120 °C
increase of gallbladder area vs control [11]: 210%
liver microsomal clearance (CLint) [12]: 1390 mL/min/g
SMILES: O=C(c1sccc1Oc1cc(Cl)ccc1Cl)N1CCN(C2CC2)c2ccccc21 [Compound 9a]
